We go through 14 molecules from paper PMC9022196 (Pharmacology Research & Perspectives, 2022).

As a reminder, the CC50 is the concentration that lowers cell viability or growth by half.

Structures are written as SMILES. Several values for one entry are separate records, joined by “and”; a condition that tells them apart may be missing. Equal values may be shown once. Entries after “also recorded” stand apart in the source; their conditions may differ. Where a name gives a salt, the structure may show the parent alone. Read-outs that look alike come from different tables or passages of the source.

Series [1] has as its system LMH cells. Put plainly: Fluorescence-based in vitro drug screening assay. The series is classed as cell-based, chicken. To be noted: for Fluorescence reading / Fluorescence readings compared with the […] AIA control: 18–24 h; for Fluorescence reading: ex 410/em 625 nm; for Fluorescence readings compared with the […] AIA control: in the presence of DFO, 0–1 mM; for Porphyrogenicity / PP accumulation (authors' conclusion in words): with and without DFO.

The conditions of series [2]: cited from earlier work; for Maximal plasma concentration: ref 39 (Nagelschmitz et al.), listed as aspirin.
The nature of series [3]: ATPLite cytotoxicity assay in LMH cells. To be noted: chicken, CC50, LMH cells, 18–24 h, presence of 250 μM DFO. A general note: Cellular ATP, detected with luciferase, serves as a proxy for viable cell number.
The subject of series [4] is hydroxymethylbilane synthase. To be noted: rat livers; cited from earlier work.
Series [5] has as its system hydroxymethylbilane synthase. To be noted: human erythrocytes; cited from earlier work.
Series [6] has as its system HepG2 cells. The series can be described thus: Fluorescence-based in vitro drug screening assay. The class given is cell-based, human. To be noted: 1 mM compound + DFO, 18–24 h.
Series [7] concerns HepG2 spheroids. The series can be described thus: Fluorescence-based in vitro drug screening assay in HepG2 spheroids. The class given is cell-based, human. To be noted: for Fluorescence reading compared with background: HepG2 organoids/spheroids, 0.5 mM compound with and without DFO.
In series [8] the test system is LMH cells. The series can be described thus: ATPLite cytotoxicity assay in LMH cells. To be noted: 1 mM compound in the presence of DFO.
The test system of series [9] is human liver organoids. Put plainly: Fluorescence-based in vitro drug screening assay in human liver organoids. The class given is cell-based. To be noted: approximately 100 human liver organoids, 0.5 mM compound + DFO, 18–24 h.
Where [10] appears, read: LMH cells, […] compound + 250 μM DFO.
[11] abbreviates: humans, typically used oral doses.
Setting [12] is: 1 mM compound in the presence of DFO.
[13] abbreviates: LMH cells, 1 mM compound + 250 μM DFO.

For `C#CC1(O)CC[C@H]2[C@@H]3CCC4=CC(=O)CC[C@@H]4[C@H]3CC[C@@]21CC` (mixture of isomers) [norgestrel, D (‐) norgestrel], the Fluorescence reading in series [1] (setting [10]) was found to be 6890 ± 106 RFU. Moreover, in series [1] (LMH cells), the “Fluorescence readings compared with the […] AIA control” value is “above the 0.314‐mM AIA control” and the “Porphyrogenicity / PP accumulation (authors' conclusion in words)” value (“Porphyrogenicity / PP accumulation” below) is “porphyrogenic; also recorded: notable accumulation of PP”. Besides, in series [2] (setting [11]), the Maximal serum concentration result is recorded as “approximately 14.1 ng/ml”.
Turning to `C[C@](N)(Cc1ccc(O)c(O)c1)C(=O)O` [alpha‐methyldopa], the “Porphyrogenicity / PP accumulation” value in series [1] (LMH cells) was “did not lead to an appreciable accumulation of PP”. For the same molecule, the CC50 in series [3] turned out to be 164 µM.
As for `Cc1noc(NS(=O)(=O)c2ccc(N)cc2)c1C` [sulfisoxazole], the “Effect on the activity of hydroxymethylbilane synthase” value in series [4] and in series [5] was “did not affect the activity” in each case. In series [1] (LMH cells), the “Porphyrogenicity / PP accumulation” value is “neither of these drugs led to excess PP accumulation”.
For the molecule `NCC(=O)CCC(=O)O` [ALA, 5‐aminolevulinic acid], the Fluorescence reading entry in series [6] is reported as “above 5000 RFU”; in [1] (setting [13]), “above 10 000 RFU”; in series [7] (approximately 200 HepG2 spheroids, 0.5 mM compound + DFO, 18–24 h), “above 6000 RFU”; in [9], “above 1600 RFU”. Moreover, the “Fold higher fluorescence readings in LMH cells than in HepG2 cells” value in series [1] (setting [12]) was “approximately 2.1 fold”. In addition, the “Fold higher fluorescence readings in LMH cells than in HepG2 organoids” value in [1] (setting [12]) was about 1.9 fold. In addition, the “Fold higher fluorescence readings in LMH cells than in human liver organoids” value in [1] (setting [12]) is about 7 fold. The “Cytotoxic effect” value in series [8] was “mild cytotoxic effects”.
As to `CCCCC(=O)N(Cc1ccc(-c2ccccc2-c2nnn[nH]2)cc1)[C@H](C(=O)O)C(C)C` [valsartan], the “Porphyrogenicity / PP accumulation” value in series [1] (LMH cells) is reported as “did not show evidence of porphyrogenicity”.
On the same count and under the same terms, the value for `C[C@]12CC[C@@H]3c4ccc(O)cc4CC[C@H]3[C@@H]1CC[C@@H]2O` [β‐estradiol] was “notable accumulation of PP”.
Take `O=C1NC(=O)C(c2ccccc2)(c2ccccc2)N1` [phenytoin]: the Fluorescence reading in series [1] (setting [10]) is given as 5913 ± 190 RFU. For the same molecule, in series [1] (LMH cells), the “Fluorescence readings compared with the […] AIA control” value is “above the 0.314‐mM AIA control” and the “Porphyrogenicity / PP accumulation” value is “porphyrogenic”. In [7], the “Fluorescence reading compared with background” value is reported as “failed to produce fluorescence readings above background”.
As to `O=C1NC(=O)C(c2ccccc2)(c2ccccc2)N1` [phenytoin sodium], the Maximal serum concentration entry in series [2] (humans, oral 300-mg dose, ref 44 (Suthisisang et al.)) is “approximately 1.98 µg/ml and ~7.22 µM”.
For `CCC1(c2ccccc2)C(=O)NC(=O)NC1=O` [phenobarbital], in series [1] (setting [13]), the Fluorescence reading was found to be 7513 ± 48 RFU. Also, the “Fluorescence readings compared with the AIA positive control” value in series [1] (LMH cells, concentrations around 0.024 mM) was “close to the AIA positive control”. For the same molecule, the “Fluorescence readings compared with the […] AIA control” value in [1] (LMH cells) is “above the 0.314‐mM AIA control”. Moreover, the “Fluorescence reading compared with background” value in [7] is on record as “failed to produce fluorescence readings above background”. For the same molecule, the Maximal serum concentration entry in series [2] (2.9-mg/kg oral dose, ref 43 (Nelson et al.)) is listed as “approximately 5.5 mg/L; also recorded: around 0.024 mM”.
For `CCN(CCO)CCCC(C)Nc1ccnc2cc(Cl)ccc12` (stereo not drawn) [hydroxychloroquine, hydroxychloroquine sulfate], in [1] (LMH cells), the “Porphyrogenicity / PP accumulation” value is recorded as “does not upregulate hepatic ALAS‐1”. In addition, the CC50 in [3] worked out at 381 µM.
Take `CCCC(CCC)C(=O)O` [sodium valproate]: the “Porphyrogenicity / PP accumulation” value in series [1] (LMH cells) was “porphyrogenic”.
Turning to `CC(=O)Nc1ccc(O)cc1` [acetaminophen], the “Porphyrogenicity / PP accumulation” value in series [1] (LMH cells) was “not porphyrogenic”. Also, the Maximum plasma concentration entry in series [2] (oral 1000-mg tablet, ref 40 (Hong et al.)) was “approximately 8.79 mg/L and ~0.058 mM”.
Consider `CC(=O)Oc1ccccc1C(=O)O` [acetylsalicylic acid], for which, in series [1] (LMH cells), the “Porphyrogenicity / PP accumulation” value is on record as “not porphyrogenic”. Besides, the Maximal plasma concentration in series [2] (intravenous 500-mg dose) was 54.25 mg/L and 0.30 mM; in series [2] (oral 500-mg dose), 4.84 mg/L and 0.027 mM.
In the case of `CCCC(CCC)C(=O)O` [valproic acid], the Maximal serum concentration is about 8.81 mM in series [2] (humans, typically used oral doses (norgestrel, valproic acid)) and “approximately 1271 mg/L” in [2] (setting [11]).
